{"source": "patent US11912734B2", "about": "“Solid-phase synthesis of oligonucleotides containing N6-(2-deoxy-alpha,beta-derythropentofuranosyl)-2,6-diamino-4-hydroxy-5-formamidopyrimidine (Fapy⋅dG)” (The Johns Hopkins University, priority 2020, dated 2024)", "origin": "cited, not measured here", "key": {"[1]": {"target": "hOGG1 (Homo sapiens, UniProt O15527)", "sequence (O15527 whole entry)": "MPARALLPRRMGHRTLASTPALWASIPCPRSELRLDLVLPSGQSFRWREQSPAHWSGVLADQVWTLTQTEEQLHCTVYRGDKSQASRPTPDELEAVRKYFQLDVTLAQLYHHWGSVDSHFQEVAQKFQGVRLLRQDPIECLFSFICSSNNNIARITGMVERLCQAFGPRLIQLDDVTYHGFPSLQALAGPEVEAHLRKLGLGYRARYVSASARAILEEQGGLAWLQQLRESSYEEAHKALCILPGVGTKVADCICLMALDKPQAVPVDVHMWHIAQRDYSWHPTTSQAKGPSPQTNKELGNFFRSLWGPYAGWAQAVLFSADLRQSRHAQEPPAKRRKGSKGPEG", "settings": "dC versus dA opposite the lesion"}, "[2]": {"target": "MutY (Escherichia coli, UniProt P17802)", "sequence (P17802 whole entry)": "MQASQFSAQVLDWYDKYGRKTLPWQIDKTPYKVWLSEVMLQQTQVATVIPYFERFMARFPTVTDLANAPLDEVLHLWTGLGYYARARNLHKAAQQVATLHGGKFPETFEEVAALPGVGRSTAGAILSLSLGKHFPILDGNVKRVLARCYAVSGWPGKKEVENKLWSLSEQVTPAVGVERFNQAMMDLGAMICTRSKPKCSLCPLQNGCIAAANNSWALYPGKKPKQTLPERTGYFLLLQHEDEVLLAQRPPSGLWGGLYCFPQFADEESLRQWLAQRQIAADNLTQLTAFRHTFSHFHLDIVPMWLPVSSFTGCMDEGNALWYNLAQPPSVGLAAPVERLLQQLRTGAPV", "settings": "relative to 8-OxodGuo:dA duplex; more rapid than from a dG:dA mispair"}, "[3]": {"target": "Fpg (Escherichia coli, UniProt P05523)", "sequence (P05523 whole entry)": "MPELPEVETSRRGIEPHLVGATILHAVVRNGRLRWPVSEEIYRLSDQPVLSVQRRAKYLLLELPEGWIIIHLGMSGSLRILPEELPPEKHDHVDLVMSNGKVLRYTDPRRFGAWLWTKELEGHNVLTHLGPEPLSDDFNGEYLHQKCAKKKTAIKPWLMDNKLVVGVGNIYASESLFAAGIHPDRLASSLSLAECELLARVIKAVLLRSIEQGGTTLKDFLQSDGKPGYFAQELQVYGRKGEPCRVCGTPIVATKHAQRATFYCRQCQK", "settings": "Fapy·dG:dC versus Fapy·dG:dA"}}}
{"smiles": "Nc1nc(O)c(NC=O)c(NC2C[C@H](O)[C@@H](CO)O2)n1", "note": "(stereo partly drawn) [Fapy·dG, N6-(2-Deoxy-α,β-D-erythropentofuranosyl)-2,6-diamino-4-hydroxy-5-formamidopyrimidine]", "values": [{"measurement": "discrimination against a Fapy·dG:dA base pair", "setting": "[1]", "value": "more than 40 fold"}, {"measurement": "incision of mismatched dA opposite Fapy·dG, more slowly than from a duplex containing 8-OxodGuo:dA", "setting": "[2]", "value": 4, "unit": "fold"}, {"measurement": "efficiency of glycosidic bond hydrolysis of the lesion in a Fapy·dG:dC base pair relative to opposite dA", "setting": "[3]", "value": "~20", "unit": "times"}]}
